Data reported in patent US9790233B2, “Compositions and methods of modulating 15-PGDH activity” (CASE WESTERN RESERVE UNIVERSITY, priority 2012, dated 2017).
Where two headings read alike, the source gives them in different places.

Columns and labels:
Type in all cases: cell-based
[1] = tested on: 15-PGDH luciferase fusion construct in Vaco503 reporter cell line; assay: 15-PGDH-luciferase fusion gene reporter induction, V503 cells
[2] = tested on: 15-PGDH luciferase fusion construct in V9m reporter cell line; assay: 15-PGDH-luciferase fusion gene reporter induction, V9m cells
[3] = tested on: 15-PGDH luciferase fusion construct in LS174T reporter cell line; assay: 15-PGDH-luciferase fusion gene reporter induction, LS174T cells; conditions: Homo sapiens
[4] = read-out: V503-3H9-7 reporter activity, % ([…]), V503 reporter cells, […] compound, % induction of luciferase activity over basal level, read-out: V503-3H9-7 reporter activity, % (2.5 μM)
[5] = read-out: V503-3H9-7 reporter activity, % ([…]), V503 reporter cells, […] compound, % induction of luciferase activity over basal level, read-out: V503-3H9-7 reporter activity, % (7.5 μM)
[6] = read-out: V9M-SC3 Reporter activity ([…]) (%), V9m reporter cells, […] compound, % induction of luciferase activity over basal level, read-out: V9M-SC3 Reporter activity (2.5 μM) (%)
[7] = read-out: V9M-SC3 Reporter activity ([…]), %, V9m reporter cells, […] compound, % induction of luciferase activity over basal level, read-out: V9M-SC3 Reporter activity (7.5 μM), %
[8] = read-out: Ls174T-SC1 reporter activity, % ([…]), LS174T reporter cells, […] compound, % induction of luciferase activity over basal level, read-out: Ls174T-SC1 reporter activity, % (2.5 μM)
[9] = read-out: Ls174T-SC1 reporter activity, % ([…]), LS174T reporter cells, […] compound, % induction of luciferase activity over basal level, read-out: Ls174T-SC1 reporter activity, % (7.5 μM)
[10] = read-out: V503 reporter activity ([…]), […], % induction over basal level, Table 17, read-out: V503 reporter activity (2.5 μM)
[11] = read-out: V503 reporter activity ([…]), […], % induction over basal level, Table 17, read-out: V503 reporter activity (7.5 μM)
[12] = read-out: V9M reporter activity ([…]), […], % induction of luciferase activity over basal level, Table 17, read-out: V9M reporter activity (2.5 μM)
[13] = read-out: V9M reporter activity ([…]), […], % induction over basal level, Table 17, read-out: V9M reporter activity (7.5 μM)
[14] = read-out: LS174T reporter activity ([…]), […], % induction over basal level, Table 17, read-out: LS174T reporter activity (2.5 μM)
[15] = read-out: lS174T reporter activity ([…]), […], % induction over basal level, Table 17, read-out: lS174T reporter activity (7.5 μM)
[16] = read-out: V503 reporter activity ([…]), […], % increased luciferase activity over basal level, read-out: V503 reporter activity (2.5 uM)
[17] = read-out: V503 reporter activity ([…]), […], % increased luciferase activity over basal level, read-out: V503 reporter activity (7.5 uM)
[18] = read-out: V9M reporter activity ([…]), […], % increased luciferase activity over basal level, 100 = doubling, read-out: V9M reporter activity (2.5 uM)
[19] = read-out: V9M reporter activity ([…]), […], % increased luciferase activity over basal level, 100 = doubling, read-out: V9M reporter activity (7.5 uM)
[20] = read-out: LS174T reporter activity ([…]), […], % increased luciferase activity over basal level, read-out: LS174T reporter activity (2.5 uM)
[21] = read-out: LS174T reporter activity ([…]), […], % increased luciferase activity over basal level, read-out: LS174T reporter activity (7.5 uM)
[22] = read-out: V503-3H9-7 reporter activity, % ([…]), […], Table 18, read-out: V503-3H9-7 reporter activity, % (2.5 μM)
[23] = read-out: V503-3H9-7 reporter activity, % ([…]), […], Table 18, read-out: V503-3H9-7 reporter activity, % (7.5 μM)
[24] = read-out: V9M-SC3 Reporter activity ([…]) (%), […], Table 18, read-out: V9M-SC3 Reporter activity (2.5 μM) (%)
[25] = read-out: Ls174T-SC1 reporter activity, % ([…]), […], Table 18, read-out: Ls174T-SC1 reporter activity, % (2.5 μM)
[26] = read-out: Ls174T-SC1 reporter activity, % ([…]), […], Table 18, read-out: Ls174T-SC1 reporter activity, % (7.5 μM)

| Structure (SMILES) | activation at […] [1, 4] | activation at […] [1, 5] | activation at […] [2, 6] | activation at […] [2, 7] | activation at […] [3, 8] | activation at […] [3, 9] | other results |
| --- | --- | --- | --- | --- | --- | --- | --- |
| COc1ccc(OC)c(N(CC(=O)Nc2ccnc(F)c2)S(=O)(=O)c2ccccc2)c1 [SW208005] | 103% | 61.2% | 42.4% | 19.8% | 63.9% | 53.9% | – |
| COc1ccc(N(CC(=O)Nc2ccc(CC#N)cc2)S(=O)(=O)c2ccccc2)cc1Cl [compound 919576] | – | – | – | – | – | – | activation at […] [1, 10]: 49.2%; activation at […] [1, 11]: 73.7%; activation at […] [2, 12]: 49.9%; activation at […] [2, 13]: 63%; activation at […] [3, 14]: 17.5%; activation at […] [3, 15]: 30.7% |
| COc1ccc(N(CC(=O)Nc2ccc(C(C)=O)cc2)S(=O)(=O)c2ccccc2)cc1Cl [compound 539430] | – | – | – | – | – | – | activation at […] [1, 10]: 38.8%; activation at […] [1, 11]: 103%; activation at […] [2, 12]: 21.3%; activation at […] [2, 13]: 21.4%; activation at […] [3, 14]: 5.62%; activation at […] [3, 15]: 10.4% |
| COc1ccc(OC)c(N(CC(=O)Nc2ccccc2OC)S(=O)(=O)c2ccccc2)c1 [SW202965] | 23.8% | 98.1% | -30.9% | -25.8% | -23.5% | 3.52% | – |
| COc1ccc(OC)c(N(CC(=O)Nc2cccnc2)S(=O)(=O)c2ccccc2OC(F)(F)F)c1 [SW202954] | -8.94% | 2.39% | 2.7% | 4.8% | -4.59% | -6.99% | – |
| COc1ccc(OC)c(N(CC(=O)Nc2ccncc2F)S(=O)(=O)c2ccccc2)c1 [SW208004] | 147% | 177% | 43.7% | 76.1% | 62.2% | 118% | – |
| CCOC(=O)c1sc2nc(-c3cccs3)cc(-c3ccc(F)cc3)c2c1N [compound 413423] | – | – | – | – | – | – | activation at […] [1, 16]: 7.89%; activation at […] [1, 17]: 3.13%; activation at […] [2, 18]: -5.65%; activation at […] [2, 19]: -8.76%; activation at […] [3, 20]: 3.41%; activation at […] [3, 21]: 3.91% |
| O=C(CN(c1ccccc1)S(=O)(=O)c1ccccc1)Nc1cccnc1 [331727−07−2] | – | – | – | – | – | – | activation at […] [1, 22]: 8.13%; activation at […] [1, 23]: 1.14%; activation at […] [2, 24]: 28.2%; activation at […] [3, 25]: -7.53%; activation at […] [3, 26]: 9.47% |
| COc1ccc(OC)c(N(CC(=O)Nc2ccccc2C(N)=O)S(=O)(=O)c2ccccc2)c1 [530107-57-4] | – | – | – | – | – | – | activation at […] [1, 22]: 52.6%; activation at […] [1, 23]: 84.4%; activation at […] [2, 24]: 59.5%; activation at […] [3, 25]: 5.45%; activation at […] [3, 26]: 8.27% |
| COc1ccc(OC)c(N(CC(=O)OC(C)C)S(=O)(=O)c2ccccc2)c1 [SW202971] | 85.5% | 169% | -14.5% | 9.67% | -7.91% | 34.5% | – |
| COc1ccc(OC)c(N(CC(=O)Nc2ccc(Cl)cc2)S(=O)(=O)c2ccccc2)c1 [339589-53-6] | – | – | – | – | – | – | activation at […] [1, 22]: 200%; activation at […] [1, 23]: 105%; activation at […] [2, 24]: -1%; activation at […] [3, 25]: 51.2%; activation at […] [3, 26]: 89.7% |
| COc1ccc(OC)c(N(CC(=O)N2CCCCCC2)S(=O)(=O)c2ccccc2)c1 [SW208000] | 122% | 138% | 33.5% | 36.6% | 42% | 70.5% | – |
| COc1ccc(OC)c(N(CC(=O)Nc2cccc(Cl)c2)S(=O)(=O)c2ccccc2)c1 [SW202985] | 79.6% | 150% | -27.3% | -21.9% | -4.89% | 26.3% | – |
| COc1ccc(N(CC(=O)N/N=C/c2cccnc2)S(=O)(=O)c2ccccc2)c(OC)c1 [compound 396087] | – | – | – | – | – | – | activation at […] [1, 10]: 17.2%; activation at […] [1, 11]: 30.8%; activation at […] [2, 12]: -8.51%; activation at […] [2, 13]: 10.1%; activation at […] [3, 14]: 4.37%; activation at […] [3, 15]: 10.2% |
| COc1ccc(OC)c(N(CC(=O)OC2CCCCC2)S(=O)(=O)c2ccccc2)c1 [SW202978] | 46.8% | 116% | -13.8% | -0.07% | -10.1% | 20.4% | – |
| COc1ccc(OC)c(N(CC(=O)Nc2cccnc2Cl)S(=O)(=O)c2ccccc2)c1 [SW202973] | 41.5% | 107% | -15.6% | 5.61% | -16.4% | 19.3% | – |
| COc1ccc(OC)c(N(CC(=O)Nc2ccc(I)cc2C)S(=O)(=O)c2ccccc2)c1 [compound 1003012] | – | – | – | – | – | – | activation at […] [1, 10]: 34.4%; activation at […] [1, 11]: 58.5%; activation at […] [2, 12]: -10.4%; activation at […] [2, 13]: -0.9%; activation at […] [3, 14]: 5.54%; activation at […] [3, 15]: 19.8% |
| COc1ccc(OC)c(N(CC(=O)Nc2ccccc2)S(=O)(=O)c2ccccc2)c1 [SW203687] | 45.7% | -41.6% | 28.2% | 47.5% | 1.75% | 56% | – |
| COc1ccc(N(CC(=O)Nc2ccc(C(=O)O)cc2)S(=O)(=O)c2ccccc2)cc1 [compound 742790] | – | – | – | – | – | – | activation at […] [1, 10]: 5.94%; activation at […] [1, 11]: 34.4%; activation at […] [2, 12]: 13.8%; activation at […] [2, 13]: 23.1%; activation at […] [3, 14]: 12.8%; activation at […] [3, 15]: 17.3% |
| COc1ccc(OC)c(N(CC(=O)Nc2cnccc2C)S(=O)(=O)c2ccccc2)c1 [SW202967] | 34% | 69.6% | -16% | 0% | -11.7% | 9.37% | – |
| COc1cccc(N(CC(=O)Nc2cccnc2)S(=O)(=O)c2ccccc2)c1 [335392−39−7] | – | – | – | – | – | – | activation at […] [1, 22]: 18.9%; activation at […] [1, 23]: 21.9%; activation at […] [2, 24]: -12.8%; activation at […] [3, 25]: -0.54%; activation at […] [3, 26]: 14.3% |
| CCCCC(=O)c1sc2nc(-c3cccs3)cc(-c3ccccc3)c2c1N [SW206976, 1-(3-amino-4-phenyl-6-(thiophen-2-yl)thieno[2,3-b]pyridin-2-yl)pentan-1-one] | – | – | – | – | – | – | activation at […] [1, 16]: 16.8%; activation at […] [1, 17]: 49.5%; activation at […] [2, 18]: 11.8%; activation at […] [2, 19]: 17.5%; activation at […] [3, 20]: 42.4%; activation at […] [3, 21]: 20.6% |
| COc1ccc(OC)c(N(CC(=O)Nc2cc(C)cnc2Cl)S(=O)(=O)c2ccccc2)c1 [SW202972] | 39.4% | 100% | -15.4% | 0.14% | -17.4% | 16.6% | – |
| CCOC(=O)c1sc2nc(-c3cccs3)cc(-c3ccccc3)c2c1N [SW206978, Ethyl 3-amino-4-phenyl-6-(thiophen-2-yl)thieno[2,3-b]pyridine-2-carboxylate] | – | – | – | – | – | – | activation at […] [1, 16]: 38.8%; activation at […] [1, 17]: 35.8%; activation at […] [2, 18]: 7.51%; activation at […] [2, 19]: 8.02%; activation at […] [3, 20]: 31.4%; activation at […] [3, 21]: 26.2% |
| NC(=O)c1sc2nc(-c3cccs3)cc(-c3ccc(F)cc3)c2c1N [compound 980653] | – | – | – | – | – | – | activation at […] [1, 16]: -10.5%; activation at […] [1, 17]: -15.2%; activation at […] [2, 18]: 8.83%; activation at […] [2, 19]: 12%; activation at […] [3, 20]: 5.76%; activation at […] [3, 21]: 11% |
| COc1ccc(OC)c(CN(CC(=O)Nc2cccnc2)S(=O)(=O)c2ccccc2)c1 [SW203688] | -28.1% | -99.5% | 12.1% | 6.04% | 12.6% | 14.8% | – |
